“Also recorded” adds a separate entry of the source.
Legend:
human subjects = settings: pharmacological doses; cited from earlier work
[1] = system: circadian rhythms in humans (jet lag); experiment: Example 2: Subject A, flight Melbourne-Munster-Melbourne, melatonin at local bedtime; assay type: in vivo, human; settings: 5 mg oral capsule
Text: |Flight from Melbourne → Munster, W. Germany → Melbourne. |Details of activity schedule, sleeping time, melatonin administration. As in Example 1, Subject A took melatonin packaged in a gelatine capsule.

[2] = system: circadian rhythms in humans (jet lag); experiment: Example 5: Subject B, double-blind trial, Capsule A (melatonin) vs Capsule B (placebo), flight Melbourne-Geneva-Rotterdam-Melbourne; assay type: in vivo, human
Text: Subject B Flight from Melbourne→Geneva→Rotterdam→Melbourne 30.1.84-19.2.84
This was a double-blind trial. The subject, a Clinical Professor who had never taken Melatonin before, was given two bottles labelled A and B containing identical-looking gelatin capsules, and told to take one capsule A on going to bed, and again if awaking in the middle of the night, for the first 4 days after arrival in Geneva. They were told to take one capsule B according to the same schedule after return to Melbourne, and to record the quality of each night's sleep and feelings during the daytime. Capsule A contained 5 mg Melatonin. and capsule B contained a placebo (sucrose). Only after the subject had completed their written report 4 days after returning to Melbourne were they told which pills contained Melatonin and which contained placebo.

[3] = system: hamsters, sheep, ferrets and deer; settings: physiological doses by mouth, implant or injection; cited from earlier work
[4] = system: free-running circadian activity rhythm of rats; settings: pharmacological doses, only when given at onset of spontaneous activity; cited from earlier work
depressed patients = settings: cited from earlier work
[5] = system: circadian rhythms in humans (jet lag); experiment: Example 6: Subject C, flight Melbourne-Los Angeles-Washington-London-Vancouver-Melbourne, verbatim account; assay type: in vivo, human; settings: for overall effect on jet-lag (subject's impression, comment): 5 mg capsule on retiring and a second on awaking
Protocol: Subject C Flight from Melbourne→Los Angeles→Washington→London→Vancouver→Melbourne. 15.2.84-27.3.84 The subject, a Professor who had never taken Melatonin before, was given gelatin capsules containing 5 mg Melatonin and instructed to take one capsule on going to bed in the evening (local time) after arrival at their destination, and to take a further capsule if they awoke in the night.

[6] = system: body temperature rhythm in humans (shift work); experiment: Example 10: Subject F, simulated rapid rotating shift work roster, double blind melatonin vs placebo, rectal temperature; assay type: in vivo, human; settings: for sleep induction: from diary descriptions
Protocol: The subject was a […] psychology lecturer who had never taken Melatonin before. In order to evaluate the effects of Melatonin on adaptation to rotating shift work conditions the subject undertook three, eight hour phase advances in their sleep-wake/work-rest schedule at six day intervals. Melatonin was administered under double blind conditions on the first phase advance and placebo taken on the second. […] This entrainment was not a secondary consequence of sleep induction. The data can be taken as evidence for Melatonin as an effective chronobiotic for adaptation to shiftwork.
The experiment was designed to incorporate the salient features of a rapidly rotating shift-work schedule combined with aspects of lighting changes encountered on destination arrival after intercontinental jet flight. […] The experimental protocol differed from that normally found in shift work in that the subject had to spend the dark period in bed in an isolation unit irrespective of whether sleepiness was felt or not; whereas, no sleep was allowed during the light period no matter how tired the subject felt. During the light period the subject was free to leave the isolation unit to engage in work or leisure related activities.
The experiment was carried out over the long vacation, the isolated unit being situated half below ground under one of the residential colleges on La Trobe University Campus. The area was, therefore, fairly well buffered against external noise and a ventilation exhaust fan was continuously running, which aided extraneous noise reduction. Windows located high up on the walls of the kitchen alcove and shower/toilet rooms were blacked out. The main sleeping-living room was illuminated by two fluorescent tubes (40 watt) while the alcove and bathroom areas had one, 40 watt, fluorescent light in each. All lights were controlled by a single time clock set to give an LD 16:8 cycle, lights on at 0730 hours during baseline. A bedside lamp was used for reading during the light period. No lighting was allowed during the dark period for any reason. Therefore, events such as quenching of thirst and urination had to take place in total darkness. Temperature of the isolation area was maintained within the range 20°-22° C. throughout the experiment. During stage A and pre-baseline breakfast was ingested between 0800 and 0900, lunch between 1300 and 1400, and dinner between 1800 and 2000. During stages B and C meals and intermeal intervals were scheduled for equivalent times (relative to lights on) to those during stage A.
During stages B and C the subject was instructed to take one capsule just prior to lights off. If still awake one hour later, the subject was to take a second capsule. Similar instructions applied to the second and third hours after lights-off but no capsule was to be taken during the last four hours of darkness i.e. maximum number of capsules to be taken was four. Capsules were refrigerated and had to be taken in complete darkness once lights were off. A double blind procedure was employed with stage B being drug (Melatonin, Sigma, 5mg/capsule) and stage C being placebo (sucrose filled capsule). No capsules were taken on the final dark period at the end of each stage i.e. days 10 and 16.
Rectal temperature was sampled every 12 minutes using a Vitalog PMS 8 portable microcomputer. A diary of life events was kept. These included details of sleep, work, leisure, meals, beverages, urination and defecation. […]

[7] = Capsule A = 5 mg Melatonin, Geneva

## COc1ccc2[nH]cc(CCNC(C)=O)c2c1 [melatonin, 5-methoxy-N-acetyltryptamine]
Human subjects
  effect on sleep: induces drowsiness and sleep
[1]
  sleep after taking melatonin (diary, comment): sleep well following both Westerly and Easterly flights
[1]; 8-hour time zone change
  symptoms of jet lag (comment): no symptoms of jet lag apart from tiredness on the second day after their return to Melbourne
[1]; listed as Melatonin
  feeling on awakening / during day after melatonin sleep (diary): Felt fresh and rested, much less tired; also recorded: feeling excellent; also recorded: feeling fine; also recorded: feeling good; also recorded: felt fresh and rested; also recorded: Felt tired during the day; also recorded: hangover
  sleep after taking melatonin (diary, comment): fell asleep; also recorded: slept deeply; also recorded: good sleep; also recorded: slept very well; also recorded: slept well
[2]
  time after entering new time zone until able to sleep at period coinciding with early morning in zone of departure: ≤ 24 h
[2]; 5 mg melatonin per capsule, first 4 days in Geneva, double-blind
  subject's blinded conclusion on effect of capsule: making them less tired and more alert in the meetings at WHO in Geneva
[2]; [7]
  feeling during day (diary): felt tired in morning
  sleep after taking capsule (diary): fell asleep again; also recorded: slept well; also recorded: sleep well
[3]
  timing of the annual breeding season: capable of altering the timing of the annual breeding season
[4]
  entrainment of free-running circadian activity rhythm: could entrain the free-running circadian activity rhythm of rats
Depressed patients
  effect on symptoms of depressed patients: exacerbation of symptoms including florid psychotic episodes
[5]
  overall effect on jet-lag (subject's impression, comment): prevented the usual, unpleasant symptoms associated with rapid changes in time zones
[5]; listed as Melatonin
  overall effect on jet-lag (subject's impression, comment): great improvement over my normal experience of jet-lag
[5]; Los Angeles, London (5 h change), Vancouver (8 h change)
  feeling / adjustment the day after melatonin: felt very close to normal; also recorded: feeling normal and appeared to be fully adjusted to the London time; also recorded: felt a little unusual and later, around 4.00 pm felt very sleepy
[5]; first night in Los Angeles
  sleep after taking melatonin: sleep that night appeared normal
[6]; Subject F, 22.1.84, first complete day after first phase shift, capsule taken 1515
  time to fall asleep after lights out (diary, Table 2): approx. 30 minutes
[6]; Subject F, first 8 hour advance of darkness
  time by which temperature rhythm was re-established and in phase with the new light-dark cycle: by the third complete day after the phase shift (day 8)
[6]; Subject F, first 8 hour phase advance, 5 mg/capsule before lights off, double blind, contrast to placebo
  entrainment of body (rectal) temperature rhythm: good and accelerated entrainment of the body temperature rhythm; also recorded: phase shifted the rectal temperature rhythm
[6]; Subject F
  sleep induction: did not have the same potent sleep induction as reported by other subjects after intercontinental flight
[6]; Subject F, listed as Melatonin
  sleep induction: aided sleep induction

Source: patent US4665086A, “Method for minimizing disturbances in circadian rhythms of bodily performance and function” (priority 1983, dated 1987)
